Laboratory results published in publication PMC9571594, “Development of Semisynthetic Apoptosis-Inducing Agents Based on Natural Phenolic Acids Scaffold: Design, Synthesis and In-Vitro Biological Evaluation” (Molecules, 2022).
In brackets after ≈: the same amount, converted by molar mass. Read-outs that look alike come from different tables or passages of the source.

Experiments:
MCF-7 cells = test: MTT cell viability assay, MCF-7; assay type: cell-based, Human
Procedure: MCF-7 cells (Human breast adenocarcinoma), HepG2 (human hepatocellular carcinoma), A549 (human lung adenocarcinoma), Caco-2 (colon carcinoma), PANC-1 (human pancreatic cancer), and Vero cells (derived from normal kidney cells) were supplied by (Holding Company for Biological Products and Vaccines VACSERA; Giza, Egypt). The cells were cultured in PRMI 1640 medium (Lonza, Switzerland) supplemented with 10% fetal bovine serum (Gibco), 1% penicillin and 1% streptomycin (Sigma Aldrich, Saint Louis, MO, USA) at 37 °C under an atmosphere of 5% CO2 and 95% air.
(§1) The effect of parent compounds and their derivatives were assessed by (3-(4,5-dimethylthiazol-2-yl)-2,5diphenyl-tetrazolium bromide) MTT assay. […] After a merged sheet of cells developed, the growth media was decanted from the 96-well microtiter and refilled with different concentrations of compounds (µg/mL), and the plate was incubated at 37 °C for 48 h to minimize exposure to the dissolving agent (Supporting Information).
(§2) MTT solution (BIO BASIC CANADA INC) was prepared [5 mg/mL in phosphate buffered saline (PBS)], added to each well and incubated for 4 h, then after removing the media, 200 μL of DMSO was added to each well to solubilize the formazan crystals and the optical density of the formazan product was measured at 560 nm using microplate reader (mindray, MR-96A). The results were calculated as the mean of the three independent experiments. […]
(§3) Determination of sample cytotoxicity on cells (MTT protocol) […]
(§4) well) and incubated at 37°C for 24 hours to develop a complete monolayer sheet.
(§5) 2- Growth medium was decanted from 96 well micro titer plates after confluent sheet of cells were formed, cell monolayer was washed twice with wash media.
(§6) 3- two-fold dilutions of tested sample was made in RPMI medium with 2% serum […]
(§7) 4- 0.1 ml of each dilution was tested in different wells leaving 3 wells as control, receiving only maintenance medium.
(§8) 5- Plate was incubated at 37°C and examined. Cells were checked for any physical signs of toxicity, e.g. partial or complete loss of the monolayer, rounding, shrinkage, […]
(§9) 6- MTT solution was prepared (5mg/ml in PBS) (BIO BASIC CANADA INC).
(§10) 8- 20ul MTT solution were added to each well. Place on a shaking table, 150rpm for 5 minutes, to thoroughly mix the MTT into the media.
10) Dump off the media. (dry plate on paper towels to remove residue if necessary. […] 9 ش - ايلعلا هبضهلا - مطقملا / ىسيئرلا لمعملا […]

[1] = MTT cell viability assay on normal Vero cells (selectivity); assay type: cell-based; details: African green monkey, Vero cells (normal kidney cells)
Procedure: (§11) MCF-7 cells (Human breast adenocarcinoma), HepG2 (human hepatocellular carcinoma), A549 (human lung adenocarcinoma), Caco-2 (colon carcinoma), PANC-1 (human pancreatic cancer), and Vero cells (derived from normal kidney cells) were supplied by (Holding Company for Biological Products and Vaccines VACSERA; Giza, Egypt).
as §1, §2, §3, §4, §5, §6, §7, §8, §9, §10
(§12) 10) Dump off the media. (dry plate on paper towels to remove residue if necessary. […]

Vero normal cell line = test: as above; assay type: cell-based; details: for IC50: Chlorocebus sabaeus, MTT report T-4-019-5, Conc. ug/ml
Procedure: as §11, §1, §2, §3, §4, §5, §6, §7, §8, §9, §10, §12

[2] = Homo sapiens, MCF7, MTT, 48 h, average of triplicates, read-out: IC50 (μM) ± SD MCF-7

O=C(O)/C=C/c1ccc(O)c(O)c1 [Compound 1, Caffeic acid]
IC50 (MCF-7 cells; [2]): 970 µM | viability at 48 h, 15.625 ug/ml [1]: 99.1% | viability at 48 h, 31.25 ug/ml [1]: 99% | viability at 48 h, 62.5 ug/ml [1]: 99.3% | viability at 48 h, 125 ug/ml [1]: 63.6% | viability at 48 h, 250 ug/ml [1]: 22.9% | viability at 48 h, 500 ug/ml [1]: 18.1% | Toxicity % (Vero normal cell line; 15.625 ug/ml): 0.8516% | Toxicity % (Vero normal cell line; 31.25 ug/ml): 0.9732% | Toxicity % (Vero normal cell line; 62.5 ug/ml): 0.7299% | Toxicity % (Vero normal cell line; 125 ug/ml): 36.37% | Toxicity % (Vero normal cell line; 250 ug/ml): 77.13% | Toxicity % (Vero normal cell line; 500 ug/ml): 81.87% | IC50 (Vero normal cell line): 176 µg/mL (≈ 977 µM)

COc1cc(/C=C/C(=O)O)ccc1O [Compound 2, Ferulic acid]
IC50 (MCF-7 cells; [2]): 1120 µM | viability at 15.625 µg/mL (MCF-7 cells; Homo sapiens, Mcf7, 15.625 ug/ml): 98.7% | viability at 31.25 µg/mL (MCF-7 cells; Homo sapiens, Mcf7, 31.25 ug/ml): 99.4% | viability at 62.5 µg/mL (MCF-7 cells; Homo sapiens, Mcf7, 62.5 ug/ml): 99.2% | viability at 125 µg/mL (MCF-7 cells; Homo sapiens, Mcf7, 125 ug/ml): 84.9% | viability at 250 µg/mL (MCF-7 cells; Homo sapiens, Mcf7, 250 ug/ml): 29.4% | viability at 500 µg/mL (MCF-7 cells; Homo sapiens, Mcf7, 500 ug/ml): 11.7% | IC50 (MCF-7 cells; Homo sapiens, Mcf7, MTT report T-4-019-5, Conc. ug/ml, read-out: IC50): 203 µg/mL | Toxicity % (MCF-7 cells; Mcf7, 15.625 ug/ml): 1.286% | Toxicity % (MCF-7 cells; Mcf7, 31.25 ug/ml): 0.6431% | Toxicity % (MCF-7 cells; Mcf7, 62.5 ug/ml): 0.7503% | Toxicity % (MCF-7 cells; Mcf7, 125 ug/ml): 15.11% | Toxicity % (MCF-7 cells; Mcf7, 250 ug/ml): 70.63% | Toxicity % (MCF-7 cells; Mcf7, 500 ug/ml): 88.32% | viability at 48 h, 15.625 ug/ml [1]: 100% | viability at 48 h, 31.25 ug/ml [1]: 99.6% | viability at 48 h, 62.5 ug/ml [1]: 95.5% | viability at 48 h, 125 ug/ml [1]: 70.2% | viability at 48 h, 250 ug/ml [1]: 33.2% | viability at 48 h, 500 ug/ml [1]: 17.5% | Toxicity % (Vero normal cell line; 15.625 ug/ml): 0% | Toxicity % (Vero normal cell line; 31.25 ug/ml): 0.365% | Toxicity % (Vero normal cell line; 62.5 ug/ml): 4.501% | Toxicity % (Vero normal cell line; 125 ug/ml): 29.81% | Toxicity % (Vero normal cell line; 250 ug/ml): 66.79% | Toxicity % (Vero normal cell line; 500 ug/ml): 82.48% | IC50 (Vero normal cell line): 196 µg/mL (≈ 1010 µM)
